Test results: PubChem BioAssay (NCI)
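Following 48 hours of exposure in 96-well plates, responses at five concentrations were used to interpolate endpoints linearly. Definition used: TGI = concentration required for complete inhibition of growth.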

Key:
Assay in all cases: DTP human tumour cell line panel, 48 h
[1] = system: UACC-62 melanoma
[2] = system: NCI-H522 lung
[3] = system: HCT-116 colon
[4] = system: CCRF-CEM leukemia
[5] = system: DMS 273 small cell lung
[6] = system: K-562 leukemia
[7] = system: ACHN renal
[8] = system: CAKI-1 renal
[9] = system: RPMI-8226 leukemia
[10] = system: SK-OV-3 ovarian
[11] = system: SK-MEL-2 melanoma
[12] = system: OVCAR-3 ovarian
[13] = system: SNB-75 CNS
[14] = system: SN12C renal
[15] = system: SR leukemia
[16] = system: OVCAR-4 ovarian
[17] = system: MOLT-4 leukemia
[18] = system: LXFL 529 NSCLC
[19] = system: HCC-2998 colon
[20] = system: EKVX NSCLC
[21] = system: DMS 114 small cell lung
[22] = system: HCT-15 colon
[23] = system: LOX IMVI melanoma
[24] = system: KM12 colon
[25] = system: COLO 205 colon
[26] = system: HL-60(TB) leukemia
[27] = system: HOP-62 NSCLC
[28] = system: XF 498 CNS
[29] = system: M14 melanoma
[30] = system: IGROV1 ovarian
[31] = system: MALME-3M melanoma
[32] = system: SF-268 CNS
[33] = system: HOP-92 NSCLC
[34] = system: M19-MEL melanoma
[35] = system: SW-620 colon
[36] = system: UO-31 renal
[37] = system: SNB-19 CNS
[38] = system: OVCAR-5 ovarian
[39] = system: HT29 colon
[40] = system: NCI-H226 lung
[41] = system: SK-MEL-5 melanoma
[42] = system: A498 renal
[43] = system: U251 CNS
[44] = system: NCI-H23 lung
[45] = system: 786-0 renal
[46] = system: DLD-1 colon
[47] = system: RXF 393 renal
[48] = system: A549 NSCLC
[49] = system: SNB-78 CNS
[50] = system: SK-MEL-28 melanoma
[51] = system: TK-10 renal
[52] = system: NCI-H460 lung
[53] = system: KM20L2 colon
[54] = system: SF-539 CNS
[55] = system: SF-295 CNS
[56] = system: OVCAR-8 ovarian
[57] = system: UACC-257 melanoma

Measured: TGI

O=c1n(CC2CS2)c2ccccc2n1CC1CS1 (stereo not drawn)
69.1 µM: [17]
88.6 µM: [9]
74.4 µM: [31]
70.1 µM: [3]
79.7 µM: [4]
not listed: [35] | [36] | [37] | [38] | [39] | [40] | [41] | [42] | [43] | [44] | [45] | [46] | [47] | [48] | [49] | [50] | [51] | [52] | [53] | [54] | [55] | [56] | [57]
> 100 µM: all other assays above

CN1C2(c3ccccc3)C(C(=O)c3ccccc3)=C(C(=O)c3ccccc3)C1(c1ccccc1)c1c(-c3ccccc3)sc(-c3ccccc3)c12
not listed: [11] | [17] | [28]
> 100 µM: all other assays above
